From ChEMBL document CHEMBL1201862, “PubChem BioAssay data set” (2004)
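Tested at 5 concentrations; 48 h exposure; 96-well plates; endpoints linearly interpolated, else capped at highest concentration. The concentration for 50% growth inhibition is given as GI50.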 The source made the active and inactive calls. Cut-off read from the data, not from the text of the source: active = GI50 up to about 1.1 µM and inactive = higher.

Assays:
Assay in all cases: NCI anticancer screen, dose series, 48 h
IGROV-1 = test system: IGROV-1
OVCAR-3 = test system: OVCAR-3
OVCAR-8 = test system: OVCAR-8
A498 = test system: A498
786-0 = test system: 786-0
PC-3 = test system: PC-3
SK-MEL-5 = test system: SK-MEL-5
MDA-N = test system: MDA-N
M14 = test system: M14
UACC-62 = test system: UACC-62
UO-31 = test system: UO-31
DU-145 = test system: DU-145
HT-29 = test system: HT-29
SNB-19 = test system: SNB-19
NCI/ADR-RES = test system: NCI/ADR-RES
K562 = test system: K562
OVCAR-5 = test system: OVCAR-5
KM12 = test system: KM12
A549 = test system: A549
ACHN = test system: ACHN
SN12C = test system: SN12C
SR = test system: SR
SF-268 = test system: SF-268
HL-60 = test system: HL-60
RPMI-8226 = test system: RPMI-8226
HOP-62 = test system: HOP-62
SW-620 = test system: SW-620
Malme-3M = test system: Malme-3M
CCRF-CEM = test system: CCRF-CEM
MDA-MB-231 = test system: MDA-MB-231
U-251 = test system: U-251
SK-MEL-28 = test system: SK-MEL-28
SK-OV-3 = test system: SK-OV-3
SF-295 = test system: SF-295
MDA-MB-435 = test system: MDA-MB-435
HCT-116 = test system: HCT-116
TK-10 = test system: TK-10
CAKI-1 = test system: CAKI-1
MCF7 = test system: MCF7
BT-549 = test system: BT-549
UACC-257 = test system: UACC-257
SK-MEL-2 = test system: SK-MEL-2
HCC 2998 = test system: HCC 2998
MOLT-4 = test system: MOLT-4
SNB-75 = test system: SNB-75
EKVX = test system: EKVX
NCI-H460 = test system: NCI-H460
SF-539 = test system: SF-539
RXF 393 = test system: RXF 393
T47D = test system: T47D
COLO 205 = test system: COLO 205

Measured: GI50

O=C1CCCCC/C1=C\c1cccc([N+](=O)[O-])c1
inactive: IGROV-1 19.4 µM | OVCAR-3 28.8 µM | OVCAR-8 33 µM | A498 > 100 µM | 786-0 33.2 µM | PC-3 34.3 µM | SK-MEL-5 18.4 µM | MDA-N 53.7 µM | M14 26.5 µM | UACC-62 22.5 µM | UO-31 27.7 µM | DU-145 48.2 µM | HT-29 37.2 µM | SNB-19 38.6 µM | NCI/ADR-RES 34.1 µM | K562 31.9 µM | OVCAR-5 46.2 µM | KM12 25 µM | A549 44.6 µM | ACHN 33.3 µM | SN12C 45.7 µM | SR 11.6 µM | SF-268 18.5 µM | HL-60 17.7 µM | RPMI-8226 21.6 µM | HOP-62 38.9 µM | SW-620 34.5 µM | Malme-3M 28.5 µM | CCRF-CEM 12.2 µM | MDA-MB-231 23.8 µM | U-251 27.4 µM | SK-MEL-28 38.1 µM | SK-OV-3 79.1 µM | SF-295 23.2 µM | MDA-MB-435 32.7 µM | HCT-116 22.2 µM | TK-10 33.7 µM | CAKI-1 36.1 µM | MCF7 48.3 µM | BT-549 24.5 µM | UACC-257 22.4 µM | SK-MEL-2 29.6 µM | HCC 2998 21.2 µM | MOLT-4 15.5 µM | SNB-75 38.2 µM | EKVX 33.7 µM | NCI-H460 30.1 µM | SF-539 21.5 µM | RXF 393 28.7 µM | T47D 36 µM | COLO 205 51.1 µM
